# Like-named read-outs stand apart in the source and are kept apart here.
# Columns and labels:
# [1] = tested on: stage IV cholangiocarcinoma; assay: Example 4: person, stage IV cholangiocarcinoma, Varlitinib 500 mg with cisplatin/capecitabine; format: in vivo, human; conditions: after treatment cycle 2; Varlitinib 500 mg bi-daily, cisplatin and capecitabine
# Method: A person with stage IV cholangiocarcinoma had progressive disease following treatment with radiotherapy and bi-weekly 5-FU. […] The cisplatin and capecitabine regime was cisplatin 80 mg/m^2 IV infusion and capecitabine 1000 mg/m^2 orally twice daily for 14 days every 3 weeks.
# [2] = tested on: extra-hepatic cholangiocarcinoma; assay: Example 2: person, stage IV extra-hepatic cholangiocarcinoma, Varlitinib with cisplatin/capecitabine then monotherapy; format: in vivo, human
# Method: A person, stage IV, extra-hepatic cholangiocarcinoma, prior treatment: • Whipple • Radiotherapy • Gemzar/cisplatin for 6 months For the first 6 cycles, the patient received Varlitinib 400 mg BID continuously with cisplatin (80 mg/m^2 every 3 weeks) and capecitabine (1000 mg/m2 BID, 2 weeks on, 1 week off). […] In summary, the patient received varlitinib with chemo for 6 cycles and varlitinib monotherapy for another 4 cycles (3 weeks per cycle).
# [3] = tested on: intrahepatic bile duct cholangiocarcinoma; assay: Example 6: person, intrahepatic bile duct cholangiocarcinoma, Varlitinib with FOLFOX then monotherapy; format: in vivo, human; conditions: 9 cycles Varlitinib 400 mg reduced to 300 mg BID with FOLFOX, then 7 cycles monotherapy
# Method: A person diagnosed in 2013 with intrahepatic bile duct cholangiocarcinoma, had received surgery in the form of left hemihepatectomy in 15 Jul. 2013. Prior therapies were gemcitabine and cisplatin (in the period 14 Aug. 2013 to 8 Jan. 2014) and repeated between 13 May 2015 and 1 Jul. 2015. With this treatment the status was progressive disease. The patient was given 9 cycles of a combination of Varlitinib 400 mg reduced to 300 mg BID and FOLFOX. This was followed with 7 cycles of Varlitinib monotherapy.
# [4] = Combination of Varlitinib and Herceptin versus either alone; conditions: Varlitinib in combination with Herceptin (trastuzumab)
# Source text: In one embodiment the compound of formula (I), such as Varlitinib, is employed in combination with at least one further HER inhibitor, for example a combination of Varlitinib and Herceptin (trastuzumab) and/or pertuzumab.
# [5] = tested on: treatment naïve advanced or metastatic biliary tract cancer (BTC); format: in vivo; conditions: for Median progression-free survival (PFS): at data cut-off
# Method: The primary objectives for the phase Ib study are to determine the maximum tolerated dose (MTD) and to characterize the safety profile of varlitinib when given with gem/cis. Secondary objectives include evaluation of preliminary efficacy of the study regimen and to evaluate the pharmacokinetics of varlitinib, and any circulating metabolites. A modified 3+3+3 escalation design was used, with 2 varlitinib dose levels (200 and 300 mg twice daily) combined with cisplatin (25 mg/m^2, IV for 2 hours), followed by Gemcitabine (1000 mg/m^2, 30-minute infusion) on Day 1 and Day 8 in a 3 weeks cycle.
# [6] = Cohort of 200 mg BID, with gem/cis
# [7] = Cohort of 300 mg BID, with gem/cis
smiles,measurement,setting,value
"C[C@@H]1COC(Nc2ccc3ncnc(Nc4ccc(OCc5nccs5)c(Cl)c4)c3c2)=N1 [Varlitinib, (R)—N4-[3-Chloro-4-(thiazol-2-ylmethoxy)-phenyl]-N6-(4-methyl-4,5,-dihydro-oxazol-2-yl)-quinazoline-4,6-diamine]",Response,[1],4%
same,Duration of partial remission,[2]; 6 cycles with chemo then monotherapy,24 weeks
same,Reduction in tumour size,"[2]; end of cycle 6, Varlitinib 400 mg BID with cisplatin 80 mg/m^2 and capecitabine 1000 mg/m2 BID",85.77%
same,Reduction in tumour size,"[2]; end of cycle 8, varlitinib monotherapy after cycle 6",87%
same,Disease status by RECIST,"[2]; end of cycle 10, on varlitinib monotherapy",disease progression
same,Patient status,[3],partial response
same,Reduction in tumor size,[3],50%
same,Therapeutic activity of combination versus either entity alone,[4],more therapeutic activity than either entity alone
same,Median progression-free survival (PFS),"[5]; 200 mg cohort, with gem/cis",238 days
same,Median progression-free survival (PFS),"[5]; 300 mg cohort, with gem/cis",not reached
same,"DCR overview: Complete Response, patients","[5]; All, with gem/cis",0
same,"DCR overview: Non-responders, patients","[5]; All, with gem/cis",4
same,"DCR overview: PD, patients","[5]; All, with gem/cis",0
same,"DCR overview: Partial Response, patients","[5]; All, with gem/cis",7
same,"DCR overview: Responders, patients","[5]; All, with gem/cis",17
same,"DCR overview: Responders, share of evaluable patients","[5]; All, with gem/cis",(81.0%)
same,"DCR overview: SD (≤12 weeks), patients","[5]; All, with gem/cis",2
same,"DCR overview: SD (≥12 weeks), patients","[5]; All, with gem/cis",10
same,"ORR overview: Complete Response, patients","[5]; All, with gem/cis",0
same,"ORR overview: PD, patients","[5]; All, with gem/cis",0
same,"ORR overview: Partial Response, patients","[5]; All, with gem/cis",7
same,"ORR overview: Partial Response, share of evaluable patients","[5]; All, with gem/cis",(33.3%)
same,"ORR overview: SD (≥6 weeks), patients","[5]; All, with gem/cis",12
same,"DCR overview: Complete Response, patients",[5]; [6],0
same,"DCR overview: Non-responders, patients",[5]; [6],1
same,"DCR overview: PD, patients",[5]; [6],0
same,"DCR overview: Partial Response, patients",[5]; [6],4
same,"DCR overview: Responders, patients",[5]; [6],10
same,"DCR overview: Responders, share of evaluable patients",[5]; [6],(90.9%)
same,"DCR overview: SD (≤12 weeks), patients",[5]; [6],1
same,"DCR overview: SD (≥12 weeks), patients",[5]; [6],6
same,"ORR overview: Complete Response, patients",[5]; [6],0
same,"ORR overview: PD, patients",[5]; [6],0
same,"ORR overview: Partial Response, patients",[5]; [6],4
same,"ORR overview: Partial Response, share of evaluable patients",[5]; [6],(36.4%)
same,"ORR overview: SD (≥6 weeks), patients",[5]; [6],7
same,"DCR overview: Complete Response, patients",[5]; [7],0
same,"DCR overview: Non-responders, patients",[5]; [7],3
same,"DCR overview: PD, patients",[5]; [7],0
same,"DCR overview: Partial Response, patients",[5]; [7],3
same,"DCR overview: Responders, patients",[5]; [7],7
same,"DCR overview: Responders, share of evaluable patients",[5]; [7],(70.0%)
same,"DCR overview: SD (≤12 weeks), patients",[5]; [7],1
same,"DCR overview: SD (≥12 weeks), patients",[5]; [7],4
same,"ORR overview: Complete Response, patients",[5]; [7],0
same,"ORR overview: PD, patients",[5]; [7],0
same,"ORR overview: Partial Response, patients",[5]; [7],3
same,"ORR overview: Partial Response, share of evaluable patients",[5]; [7],(30%)
same,"ORR overview: SD (≥6 weeks), patients",[5]; [7],5
same,Antitumor activity,"[5]; both 200 mg and 300 mg cohorts, Varlitinib plus gem/cis",Antitumor activity was observed
same,Patients with partial response per RECIST v1.1,"[5]; both cohorts, with gem/cis",7 patients
same,Patients with stable disease more than 12 weeks,"[5]; both cohorts, with gem/cis",10 patients
same,All-grade adverse event: anaemia,"[5]; human, in vivo",33%
same,All-grade adverse event: decreased appetite,"[5]; human, in vivo",38%
same,All-grade adverse event: diarrhoea,"[5]; human, in vivo",38%
same,All-grade adverse event: nausea,"[5]; human, in vivo",38%
same,All-grade adverse event: neutrophil decreased,"[5]; human, in vivo",38%
same,All-grade adverse event: platelet decreased,"[5]; human, in vivo",52%
same,"Dose limiting toxicities observed, number of patients","[5]; human, in vivo",3 patients
same,Grade ≥3 adverse event: anaemia,"[5]; human, in vivo",19%
same,Grade ≥3 adverse event: neutrophil decreased,"[5]; human, in vivo",33%
same,Grade ≥3 adverse event: platelet decreased,"[5]; human, in vivo",29%
same,Disease control rate,[5]; with gem/cis,81.0%

# From patent US20190117655A1, “Treatment of Biliary Duct Cancer” (ASLAN Pharmaceuticals PTE LTD, priority 2015, published 2019)
